Results: patent publication US20240158446A1, “CYCLIC COMPOUND HAVING SELECTIVE INHIBITORY ACTION ON KRAS OVER HRAS AND NRAS” (CHUGAI SEIYAKU KABUSHIKI KAISHA, priority 2021, published 2024)
Read-outs that look alike come from different tables or passages of the source.

Assays:
[1] = molecular target: GDP-bound HRAS wild-type protein (Homo sapiens, UniProt P01112); experiment: Binding to HRAS by surface plasmon resonance (SPR), Single Cycle Kinetics; conditions: SPR, GDP-bound HRAS wild-type protein vs GDP-bound KRAS wild-type protein
GDP-bound HRAS wild-type protein, sequence (P01112 whole entry): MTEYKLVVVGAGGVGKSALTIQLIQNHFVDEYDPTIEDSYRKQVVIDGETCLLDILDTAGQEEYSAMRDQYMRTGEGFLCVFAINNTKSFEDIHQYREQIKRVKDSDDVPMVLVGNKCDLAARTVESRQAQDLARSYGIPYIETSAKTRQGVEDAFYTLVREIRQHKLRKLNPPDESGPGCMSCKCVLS

[2] = molecular target: GDP-bound NRAS wild-type protein (Homo sapiens, UniProt P01111); experiment: Binding to NRAS by surface plasmon resonance (SPR), Single Cycle Kinetics; conditions: SPR, GDP-bound NRAS wild-type protein vs GDP-bound KRAS wild-type protein
GDP-bound NRAS wild-type protein, sequence (P01111 whole entry): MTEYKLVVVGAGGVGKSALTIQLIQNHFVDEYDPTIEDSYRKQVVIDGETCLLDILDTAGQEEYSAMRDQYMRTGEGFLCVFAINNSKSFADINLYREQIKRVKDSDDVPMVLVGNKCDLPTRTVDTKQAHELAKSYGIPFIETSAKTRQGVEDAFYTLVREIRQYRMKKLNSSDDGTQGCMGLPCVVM

[3] = system: human lung cancer strain NCI-H441;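 note: cell proliferation inhibition after four days measured by CellTiter-Glo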
[4] = molecular target: GDP-bound KRAS wild-type protein (Homo sapiens, UniProt P01116); experiment: Binding to KRAS by surface plasmon resonance (SPR), Single Cycle Kinetics; conditions: SPR, Single Cycle Kinetics, GDP-bound KRAS wild-type protein, read-out: KRAS KD
GDP-bound KRAS wild-type protein, sequence (P01116 whole entry): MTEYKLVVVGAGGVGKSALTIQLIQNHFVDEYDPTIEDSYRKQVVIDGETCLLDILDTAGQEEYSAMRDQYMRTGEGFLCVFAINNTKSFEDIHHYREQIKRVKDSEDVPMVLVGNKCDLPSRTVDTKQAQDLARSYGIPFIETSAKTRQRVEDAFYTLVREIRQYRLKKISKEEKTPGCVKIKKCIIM

IC50 [3] [nM] | Kd [4] [nM] | Kd ([4]; 1:1 binding model) [nM] | Compound | HRAS/KRAS (ratio of KD value for HRAS to KD value for KRAS) [1] | NRAS/KRAS (ratio of KD value for NRAS to KD value for KRAS) [2] | HRAS/KRAS (ratio of KD value for HRAS to KD value for KRAS) ([1]; KD ratio class) | NRAS/KRAS (ratio of KD value for NRAS to KD value for KRAS) ([2]; KD ratio class)
21.9 | 0.67 |  | CCC[C@H]1C(=O)N[C@@H]([C@@H](C)CC)C(=O)N(C)CC(=O)N(C)[C@H]2C/C=C\CCN(C2=O)[C@@H](CC2CCC(F)(F)CC2)C(=O)N(C)CC(=O)N[C@@H](CCc2ccc(C(F)(F)F)c(Cl)c2)C(=O)N2C[C@H](OCC)C[C@H]2C(=O)NC2(CC(C)(C)C2)C(=O)N(C)[C@@H](C(CC)CC)C(=O)N(C)[C@H](C(=O)N(C)C)CC(=O)N1C [PP2498] | A (a compound having 10 or more and less than 20 is denoted as A) | A (a compound having 10 or more and less than 20 is denoted as A) |  | 
16.5 |  | 0.12 | CC[C@H](C)[C@@H]1NC(=O)[C@H](CC)N(C)C(=O)C[C@@H](C(=O)N(C)C)N(C)C(=O)[C@H](C2CCCC2)N(C)C(=O)C2(CCCC2)NC(=O)[C@@H]2CCCN2C(=O)[C@H](CCc2cc(F)c(C(F)(F)F)c(F)c2)NC(=O)CN(C)C(=O)[C@H](Cc2ccc(C(F)(F)F)cc2)N2CC/C=C\C[C@@H](C2=O)N(C)C(=O)CN(C)C1=O [PP1273, (2S,8S,14S,20S,23S,27S,30S,36S,38Z)-20-cyclopentyl-8-[2-[3,5-difluoro-4-(trifluoromethyl)phenyl]ethyl]-27-ethyl-N,N,4,19,22,26,32,35-octamethyl-30-[(1S)-1-methylpropyl]-3,6,9,15,18,21,25,28,31,34,42-undecaoxo-2-[[4-(trifluoromethyl)phenyl]methyl]spiro[1,4,7,10,16,19,22,26,29,32,35-undecazatricyclo[34.5.1.0^10,14]dotetracont-38-ene-17,1′-cyclopentane]-23-carboxamide] |  |  | B (a compound having 3 or more and less than 10 is denoted as B) | A (a compound having 10 or more and less than 20 is denoted as A)
34.8 |  | 0.15 | CCO[C@@H]1C[C@H]2C(=O)NC3(CCC3)C(=O)N(C)[C@@H](C3CCCC3)C(=O)N(C)[C@H](C(=O)N3CCCC3)CC(=O)N(C)[C@@H](CC)C(=O)N[C@@H]([C@@H](C)CC)C(=O)N(C)CC(=O)N(C)[C@H]3C/C=C\CCN(C3=O)[C@@H](CC3CCCCC3)C(=O)N(C)CC(=O)N[C@@H](CCc3cc(F)c(C(F)(F)F)c(F)c3)C(=O)N2C1 [PP1443, (2S,8S,12R,14S,20S,23S,27S,30S,36S,38Z)-2-(cyclohexylmethyl)-20-cyclopentyl-8-[2-[3,5-difluoro-4-(trifluoromethyl)phenyl]ethyl]-12-ethoxy-27-ethyl-4,19,22,26,32,35-hexamethyl-30-[(1S)-1-methylpropyl]-23-(pyrrolidine-1-carbonyl)spiro[1,4,7,10,16,19,22,26,29,32,35-undecazatricyclo[34.5.1.0^10,14]dotetracont-38-ene-17,1′-cyclobutane]-3,6,9,15,18,21,25,28,31,34,42-undecone] |  |  | A (a compound having 10 or more and less than 20 is denoted as A) | AA (a compound having 20 or more is denoted as AA)
25.7 | 0.54 |  | CCC[C@H]1C(=O)N[C@@H]([C@@H](C)CC)C(=O)N(C)CC(=O)N(C)[C@H]2C/C=C\CCN(C2=O)[C@@H](CC2CCCCC2)C(=O)N(C)CC(=O)N[C@@H](CCc2ccc(C(F)(F)F)c(OC)c2)C(=O)N2C[C@@H](C)C[C@H]2C(=O)N(C)C2(CCC2)C(=O)N(C)[C@@H](C2CCCC2)C(=O)N(C)[C@H](C(=O)N(C)C)CC(=O)N1C [PP2370] | B (a compound having 3 or more and less than 10 is denoted as B) | B (a compound having 3 or more and less than 10 is denoted as B) |  | 
